Data: patent US20260306460A1, “COMPOSITION FOR REMOVING AND INHIBITING SENESCENT CELLS, AND USES THEREOF” (LIFECEUTIX CO., LTD., priority 2023, published 2026)

Columns and labels:
Format in all cases: in vivo, mouse
[1] = tested on: transplanted liver of aged mice; assay: Efficiency of liver transplantation from aged mice into young mice
Description: In addition, the efficiency of liver transplantation was evaluated. Livers extracted from aged mice of Example 21-1, untreated and treated with LX-403, were transplanted into young 3-month-old mice, and the efficiency of liver transplantation was evaluated 3 days later through analysis of aging and liver damage markers. As a result, when treated with LX-403, the amount of p16, an aging-related marker of the liver after transplantation, and serum AST and ALT, liver damage markers, decreased compared to the control group. […] This improvement in transplantation efficiency was also confirmed when the livers extracted from aged mice were transplanted after removing senescent cells under ex vivo conditions, such as by culturing them in an LX-403-containing medium.

[2] = tested on: doxorubicin-induced aged C57BL6J mice; assay: p16 and p21 mRNA in doxorubicin-aged mice, Example 22-2, Table 31; details: untreated aged = 100%
Description: Eight-week-old male C57BL6J mice (KRIBB Laboratory Animal Resource Center) were acclimated to the experimental environment for one week. Afterwards, the anticancer agent doxorubicin was administered intraperitoneally at a concentration of 10 mg/kg, inducing aging for more than 10 days. The aging-induced mice were randomly assigned to experimental and control groups. LX-403 was mixed with a 10% ethanol solution of PEG400 and administered orally at a concentration of 25 mg/kg or intradermally at a concentration of 1 μM for 21 days. LX-1801 was mixed in distilled water with 4% DMSO, 30% PEG300, and 5% Tween80 and administered intradermally at a concentration of 0.4 μM daily for 21 days. LX-2001 was mixed in PBS and administered intradermally at a concentration of 2 μM daily for 21 days. LX-2002 was mixed in distilled water with 4% DMSO, 30% PEG300, and 5% Tween80 and administered intradermally at a concentration of 2 μM daily for 21 days. […] LX-2005 was mixed in distilled water with 4% DMSO, 30% PEG300, and 5% Tween80 and administered intradermally at a concentration of 90 μM daily for 21 days. LX-2007 was mixed in distilled water with 4% DMSO, 30% PEG300, and 5% Tween80 and administered intradermally at a concentration of 90 μM daily for 21 days. […] LX-3002 was mixed in distilled water with 4% DMSO, 30% PEG300, and 5% Tween80 and administered orally at a concentration of 10 mg/kg daily for 21 days. […] LX-5411 was mixed in 5% phosphate-buffered saline (PBS) and administered orally at a concentration of 10 mg/kg daily for 21 days or intradermally at a concentration of 3 μM. LX-5701 was mixed in PBS and administered orally at a concentration of 360 mg/kg daily for 21 days. LX-6807 was mixed in saline and administered intraperitoneally at a concentration of 1 mg/kg daily for 21 days. The control group received only the solution in the same volume. After the end of drug administration, the methods described in each example below were performed.
Mice were sacrificed using the same method as in Example 7-2 of WO2023-085787 A1. RNA was extracted from organ tissues of each site, and cDNA synthesized was used for qRT-PCR and analysis. […] The mRNA amounts of p16 and p21 after aging induction were calculated as 100% and compared with the mRNA amounts of p16 and p21 after LX-5701 treatment.

[3] = tested on: doxorubicin-induced aged C57BL6J mice; assay: Serum IL6 (ELISA) in doxorubicin-aged mice, Example 22-5, Table 34; details: untreated aged = 100
Description: Eight-week-old male C57BL6J mice (KRIBB Laboratory Animal Resource Center) were acclimated to the experimental environment for one week. Afterwards, the anticancer agent doxorubicin was administered intraperitoneally at a concentration of 10 mg/kg, inducing aging for more than 10 days. The aging-induced mice were randomly assigned to experimental and control groups. LX-403 was mixed with a 10% ethanol solution of PEG400 and administered orally at a concentration of 25 mg/kg or intradermally at a concentration of 1 μM for 21 days. LX-1801 was mixed in distilled water with 4% DMSO, 30% PEG300, and 5% Tween80 and administered intradermally at a concentration of 0.4 μM daily for 21 days. LX-2001 was mixed in PBS and administered intradermally at a concentration of 2 μM daily for 21 days. LX-2002 was mixed in distilled water with 4% DMSO, 30% PEG300, and 5% Tween80 and administered intradermally at a concentration of 2 μM daily for 21 days. […] LX-2005 was mixed in distilled water with 4% DMSO, 30% PEG300, and 5% Tween80 and administered intradermally at a concentration of 90 μM daily for 21 days. […]
The amount of IL6, a senescence-associated secretory factor (SASP), was measured in serum collected from mice using the same method as in Example 7-5 of WO2023-085787 A1 using an enzyme-linked immunosorbent assay (ELISA Kit, R&D Systems).

[4] = tested on: obesity-induced aged C57BL6J mice; assay: p16 and p21 mRNA in obesity-aged mice, Example 23-2, Table 42; details: 360 mg/kg oral daily for 21 days, untreated 100%
Description: 15-week-old male C57BL6J mice (The Jackson Laboratory) were induced to obesity by a high-fat diet using the same method as in Example 9-1 WO2023-085787 A1. After acclimation to the experimental environment for one week, the mice were randomly assigned to experimental and control groups. […] LX-3002 was mixed in distilled water with 4% DMSO, 30% PEG300, and 5% Tween80 and administered orally at a concentration of 10 mg/kg daily for 21 days. LX-5701 was mixed in PBS and administered orally at a concentration of 360 mg/kg daily for 21 days. LX-6807 was mixed in saline and administered intraperitoneally at a concentration of 1 mg/kg daily for 21 days. The control group received only the solution in the same volume. After the end of drug administration, the methods described in each example below were performed.
Mice were sacrificed using the same method as in Example 7-2 of WO2023-085787 A1. RNA was extracted from organ tissues from each site, and the synthesized cDNA was used for qRT-PCR (quantitative real-time PCR) analysis. […] The mRNA levels of p16 and p21 after obesity induction were calculated as 100% and compared with the mRNA levels of p16 and p21 after LX-5701 treatment.

[5] = tested on: mice with peritoneal fibrosis induced by chlorhexidine gluconate; assay: Chlorhexidine gluconate (CHG) peritoneal fibrosis in mice, Example 20
From the text: The anti-fibrosis activity of LX-5701 was confirmed using the same method as in Example 6-2 of WO2023-085787 A1. The thickness of the peritoneal mesothelial cell layer was quantitatively evaluated in mice with peritoneal fibrosis induced by chlorhexidine gluconate (CHG) under untreated and LX-5701-treated conditions.

[6] = tested on: doxorubicin-induced aged C57BL6J mice; assay: Lipofuscin staining in muscle of doxorubicin-aged mice, Example 22-4, Table 33; details: staining area, untreated aged = 100
Description: Eight-week-old male C57BL6J mice (KRIBB Laboratory Animal Resource Center) were acclimated to the experimental environment for one week. Afterwards, the anticancer agent doxorubicin was administered intraperitoneally at a concentration of 10 mg/kg, inducing aging for more than 10 days. The aging-induced mice were randomly assigned to experimental and control groups. LX-403 was mixed with a 10% ethanol solution of PEG400 and administered orally at a concentration of 25 mg/kg or intradermally at a concentration of 1 μM for 21 days. LX-1801 was mixed in distilled water with 4% DMSO, 30% PEG300, and 5% Tween80 and administered intradermally at a concentration of 0.4 μM daily for 21 days. LX-2001 was mixed in PBS and administered intradermally at a concentration of 2 μM daily for 21 days. LX-2002 was mixed in distilled water with 4% DMSO, 30% PEG300, and 5% Tween80 and administered intradermally at a concentration of 2 μM daily for 21 days. […] LX-2005 was mixed in distilled water with 4% DMSO, 30% PEG300, and 5% Tween80 and administered intradermally at a concentration of 90 μM daily for 21 days. LX-2007 was mixed in distilled water with 4% DMSO, 30% PEG300, and 5% Tween80 and administered intradermally at a concentration of 90 μM daily for 21 days. […]

O=C(C(C[N+](=O)[O-])=NO)N1CCN(C(c2ccc(Cl)cc2)c2ccc(Cl)cc2)CC1 [LX-403]
p16 of transplanted liver, serum AST and ALT ([1]; 3 days after transplantation): decreased
efficiency of liver transplantation ([1]; mouse, in vivo): improves the efficiency of long-term liver transplantation

O=C1C2CCN(CC2)C1CNC(=O)C(F)(F)F (stereo not shown) [LX-5701]
p16 mRNA (%), Kidney ([2]; Kidney): 78 (±7.7) %
p21 mRNA (%), Kidney ([2]; Kidney): 75 (±5.8) %
p16 mRNA (%), Liver ([2]; Liver): 62 (±7.5) %
p21 mRNA (%), Liver ([2]; Liver): 64 (±11.7) %
p16 mRNA (%), eWAT ([2]; eWAT): 55 (±11.5) %
p21 mRNA (%), eWAT ([2]; eWAT): 71 (±8.8) %
IL6 (%) [3]: 57 (±21.5) %
p16 mRNA, Eye ([4]; Eye): 71%
p21 mRNA, Eye ([4]; Eye): 70%
p16 mRNA, Heart ([4]; Heart): 80%
p21 mRNA, Heart ([4]; Heart): 81%
p16 mRNA, Liver ([4]; Liver): 63%
p21 mRNA, Liver ([4]; Liver): 61%
p16 mRNA, Lung ([4]; Lung): 74%
p21 mRNA, Lung ([4]; Lung): 77%
p16 mRNA, Muscle ([4]; Muscle): 75%
p21 mRNA, Muscle ([4]; Muscle): 64%
p16 mRNA, Skin ([4]; Skin): 77%
p21 mRNA, Skin ([4]; Skin): 68%
p16 mRNA, asWAT ([4]; asWAT): 67%
p21 mRNA, asWAT ([4]; asWAT): 79%
p16 mRNA, eWAT ([4]; eWAT): 65%
p21 mRNA, eWAT ([4]; eWAT): 55%
p16 mRNA, iBAT ([4]; iBAT): 72%
p21 mRNA, iBAT ([4]; iBAT): 80%
p16 mRNA, iWAT ([4]; iWAT): 61%
p21 mRNA, iWAT ([4]; iWAT): 51%
Submesothelial Thickness [5]: 41.8 (±7.5) μm
Lipofuscin (%), Muscle [6]: 64 (±13.1) %
